Test system: Fibrosarcoma Meth A
Test: Anti-tumor activity against Fibrosarcoma Meth A in mice (mean survival time, T/C)
Assay type: in vivo
Conditions: T/C x 100 of mean survival time (medicated vs control group); female BALB/c mice inoculated intrapleurally with 5 x 10^5 Meth A cells; compound injected into pleural cavity, 100 pg/0.05 ml/mouse three times (before 14 days, after 1 hour and after 3 days of tumor implantation)
Method: Groups of eight female BALB/c mice, aged 8-9 weeks and weighing 18.0-22.5 g were used.
Fibrosarcoma Meth A (hereinafter referred to as Meth A) was successively transferred every 7 days into BALB/c mice by intraperitoneal inoculation of the ascites cells thereof and the Meth A in the ascites cells as harvested 6 or 7 days after the inoculation was used as tumor cells.
Each of the BALB/c mice was inoculated intrapleurally with 5 x 10^5 Meth A cells in 0.1 ml Hanks solution.
Test compound was dissolved in phosphate buffer saline solution, and was injected into pleural cavity to each of the mice in doses of 100 pg/0.05 ml/mouse three times, i.e. before 14 days, after 1 hour and after 3 days of tumor implantation.
The control group was given with a vehicle alone in the same way.
The antitumor activity of the test compound was estimated by comparing mean survival time of the two groups. • T : Mean survival time of the medicated group • C : Mean survival time of the control group

SMILES	Anti-tumor activity *a (%)
CCCCCCCCCCCCCCCCCCOCC(COP(=O)([O-])OCC[N+](C)(C)C)OC (racemic) [Control Compound, (rac)-1-O-Octadecyl-2-0-methyl-glycerol-3-phosphorylcholine, reference compound]	302.8
CCCCCCCCCCCCCCCCCCO[C@@H]1[C@@H](OC)[C@@H](OC)O[C@@H]1COP(=O)([O-])OCC[N+](C)(C)C [Ex 4-(3), Methyl 2-0-methyl-3-0-octadecyl-a-D-xylofuranoside 5-(choline phosphate)]	408
CCCCCCCCCCCCCCCCCCO[C@H]1[C@@H](O)[C@H](OC)O[C@@H]1COP(=O)([O-])OCC[N+](C)(C)C [Ex 6-(7), Methyl 3-O-octadecyl-β-D-ribofuranoside 5-(choline phosphate)]	383

Source: patent EP0103877A1, “Phosphate derivatives, process for preparation thereof and pharmaceutical compositions of the same” (FUJISAWA PHARMACEUTICAL CO., LTD., priority 1982, dated 1984)
